Test results published in publication PMC11263391, “Molecular insights into degron recognition by CRL5^ASB7 ubiquitin ligase” (Nature Communications, 2024).
Where two headings read alike, the source gives them in different places. Residues, ends and D or L forms follow the SMILES beside them.

Molecular target: T1, ASB7-Elongin B/C (Homo sapiens, UniProt Q9H672)
T1 construct: The human ASB7 (residues 11–318) was amplified via PCR; His8-SUMO (pET28-MKH8SUMO) (N, cleaved yes); made in house; host or cells: Escherichia coli BL21 (DE3)
Assay: ITC of degron peptides with wild-type ASB7-Elongin B/C
Type: binding
Conditions: for ASB7 binding ability of substituted peptide, in words: wild-type ASB7, compared with native LZTS1-degron; for -T∆S / ∆G / ∆H: wild-type ASB7-Elongin B/C; for ∆H: mean ± SD of three repeats
Experimental: The human ASB7 (residues 11-318) was amplified via PCR from a human cDNA library and seamlessly cloned into the pET28-MKH8SUMO vector (Addgene plasmid #79526). […] ITC assays were performed using a MicroCal PEAQ-ITC instrument (Malvern Panalytical) at 16 °C. […] All protein and peptide stocks were prepared in an ITC buffer (20 mM Tris-HCl pH 7.5, and 150 mM NaCl) and subsequently diluted to the desired concentrations (39-156 μM for ASB7 protein and 0.8-4 mM for the peptides, respectively). In each experiment, 1.5 μL of peptide was titrated into the ASB7 complex solution with 15 injections. The injections were spaced at 90 seconds with a reference power of 15 μcal/s. The ITC data were processed using MicroCal PEAQ-ITC Analysis software.

[1] = ITC, MicroCal PEAQ-ITC, 16 °C, 20 mM Tris-HCl pH 7.5, 150 mM NaCl, peptide (0.8–4 mM) titrated into wild-type ASB7-Elongin B/C (39–156 μM), 15 injections, mean ± SD of three independent repeats, read-out: KD
[2] = ITC, 16 °C, 20 mM Tris-HCl pH 7.5, 150 mM NaCl

T1 sequence (Q9H672 11-318): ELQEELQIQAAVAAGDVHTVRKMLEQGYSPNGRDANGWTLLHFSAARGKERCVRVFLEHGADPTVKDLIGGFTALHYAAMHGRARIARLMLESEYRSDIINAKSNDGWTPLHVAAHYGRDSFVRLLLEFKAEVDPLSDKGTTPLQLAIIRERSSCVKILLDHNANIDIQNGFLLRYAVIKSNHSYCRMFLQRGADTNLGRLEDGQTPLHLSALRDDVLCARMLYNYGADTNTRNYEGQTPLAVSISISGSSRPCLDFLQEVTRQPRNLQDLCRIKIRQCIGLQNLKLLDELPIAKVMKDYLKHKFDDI
T1 sequence (Q15370 1-104 partner limits assumed): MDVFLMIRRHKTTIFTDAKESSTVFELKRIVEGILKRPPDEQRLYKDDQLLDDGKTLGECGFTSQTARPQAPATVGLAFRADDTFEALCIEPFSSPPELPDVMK
T1 sequence (Q15369 17-112 partner limits assumed): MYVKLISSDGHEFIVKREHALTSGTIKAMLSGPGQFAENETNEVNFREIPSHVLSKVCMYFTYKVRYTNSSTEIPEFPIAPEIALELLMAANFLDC

Compound	Kd [1] [µM]	ASB7 binding ability of substituted peptide, in words (ITC)	also measured
CSCC[C@H](NC(=O)[C@H](CC(C)C)NC(=O)[C@H](CO)NC(=O)[C@H](CCC(=O)O)NC(=O)[C@H](CC(C)C)NC(=O)[C@@H](N)CCC(=O)O)C(=O)N[C@@H](CCCCN)C(=O)N[C@@H](CCC(=O)O)C(=O)N[C@@H](CCC(N)=O)C(=O)O (H-ELESLMKEQ-OH; N-terminus and C-terminus assumed)	> 30		
CSCC[C@H](NC(=O)[C@H](CC(C)C)NC(=O)[C@H](CO)NC(=O)[C@H](CCC(=O)O)NC(=O)[C@H](CC(C)C)NC(=O)[C@@H](N)CCC(=O)O)C(=O)N[C@@H](CCCCN)C(=O)N[C@@H](CCC(=O)O)C(=O)N[C@@H](CCC(N)=O)C(=O)N[C@@H](CC(=O)O)C(=O)N[C@@H](CC(C)C)C(=O)N[C@@H](CC(C)C)C(=O)N[C@@H](CCC(=O)O)C(=O)O (H-ELESLMKEQDLLE-OH; N-terminus and C-terminus assumed)	> 30		
CSCC[C@H](NC(=O)[C@H](CC(C)C)NC(=O)[C@H](CO)NC(=O)[C@H](CCC(=O)O)NC(=O)[C@H](CC(C)C)NC(=O)[C@@H](N)CCC(=O)O)C(=O)N[C@@H](CCCCN)C(=O)N[C@@H](CCC(=O)O)C(=O)N[C@@H](CCC(N)=O)C(=O)N[C@@H](CC(=O)O)C(=O)N[C@@H](CC(C)C)C(=O)N[C@@H](CC(C)C)C(=O)N[C@@H](CCC(=O)O)C(=O)N[C@H](C(=O)N[C@@H](CCCCN)C(=O)N[C@@H](CC(C)C)C(=O)N[C@@H](CCCNC(=N)N)C(=O)N[C@@H](CO)C(=O)N[C@@H](Cc1ccc(O)cc1)C(=O)N[C@@H](CCC(=O)O)C(=O)N[C@@H](CCCNC(=N)N)C(=O)O)[C@@H](C)O (H-ELESLMKEQDLLETKLRSYER-OH)	0.7 ± 0.31		
CSCC[C@H](NC(=O)[C@H](CC(C)C)NC(=O)[C@H](CO)NC(=O)[C@H](CCC(=O)O)NC(=O)[C@H](CC(C)C)NC(=O)[C@H](CCC(=O)O)NC(=O)[C@H](CCC(N)=O)NC(=O)[C@@H](N)CCCNC(=N)N)C(=O)N[C@@H](CCCCN)C(=O)N[C@@H](CCCNC(=N)N)C(=O)N[C@@H](CCC(N)=O)C(=O)N[C@@H](CC(=O)O)C(=O)N[C@@H](CC(C)C)C(=O)N[C@@H](CC(C)C)C(=O)N[C@@H](CCC(=O)O)C(=O)N[C@H](C(=O)N[C@@H](CCCCN)C(=O)N[C@@H](CC(C)C)C(=O)N[C@@H](CCCNC(=N)N)C(=O)N[C@@H](CO)C(=O)N[C@@H](Cc1ccc(O)cc1)C(=O)N[C@@H](CCC(=O)O)C(=O)N[C@@H](CCCNC(=N)N)C(=O)O)[C@@H](C)O [E8R] (H-RQELESLMKRQDLLETKLRSYER-OH; N-terminus and C-terminus assumed)	> 30	almost complete loss	
CSCC[C@H](NC(=O)[C@H](CC(C)C)NC(=O)[C@H](CO)NC(=O)[C@H](CCC(=O)O)NC(=O)[C@H](CC(C)C)NC(=O)[C@@H](N)CCC(=O)O)C(=O)O [ELESLM] (H-ELESLM-OH)			Kd: > 30 µM
CSCC[C@H](NC(=O)[C@H](CCCNC(=N)N)NC(=O)[C@H](CO)NC(=O)[C@H](CCC(=O)O)NC(=O)[C@H](CC(C)C)NC(=O)[C@H](CCC(=O)O)NC(=O)[C@H](CCC(N)=O)NC(=O)[C@@H](N)CCCNC(=N)N)C(=O)N[C@@H](CCCCN)C(=O)N[C@@H](CCC(=O)O)C(=O)N[C@@H](CCC(N)=O)C(=O)N[C@@H](CC(=O)O)C(=O)N[C@@H](CC(C)C)C(=O)N[C@@H](CC(C)C)C(=O)N[C@@H](CCC(=O)O)C(=O)N[C@H](C(=O)N[C@@H](CCCCN)C(=O)N[C@@H](CC(C)C)C(=O)N[C@@H](CCCNC(=N)N)C(=O)N[C@@H](CO)C(=O)N[C@@H](Cc1ccc(O)cc1)C(=O)N[C@@H](CCC(=O)O)C(=O)N[C@@H](CCCNC(=N)N)C(=O)O)[C@@H](C)O [L5R] (H-RQELESRMKEQDLLETKLRSYER-OH; N-terminus and C-terminus assumed)	> 30	almost complete loss	
CSCC[C@H](NC(=O)[C@H](CC(C)C)NC(=O)[C@H](CO)NC(=O)[C@H](CCC(=O)O)NC(=O)[C@H](CC(C)C)NC(=O)[C@H](CCC(=O)O)NC(=O)[C@H](CCC(N)=O)NC(=O)[C@@H](N)CCCNC(=N)N)C(=O)N[C@@H](CCCCN)C(=O)N[C@@H](CCC(=O)O)C(=O)N[C@@H](CCC(N)=O)C(=O)N[C@@H](CC(=O)O)C(=O)N[C@@H](CC(C)C)C(=O)N[C@@H](CCCNC(=N)N)C(=O)N[C@@H](CCC(=O)O)C(=O)N[C@H](C(=O)N[C@@H](CCCCN)C(=O)N[C@@H](CC(C)C)C(=O)N[C@@H](CCCNC(=N)N)C(=O)N[C@@H](CO)C(=O)N[C@@H](Cc1ccc(O)cc1)C(=O)N[C@@H](CCC(=O)O)C(=O)N[C@@H](CCCNC(=N)N)C(=O)O)[C@@H](C)O [L12R] (H-RQELESLMKEQDLRETKLRSYER-OH; N-terminus and C-terminus assumed)	> 30	almost complete loss	
CSCC[C@H](NC(=O)[C@H](CC(C)C)NC(=O)[C@H](CO)NC(=O)[C@H](CCC(=O)O)NC(=O)[C@H](CC(C)C)NC(=O)[C@H](CCC(=O)O)NC(=O)[C@H](CCC(N)=O)NC(=O)[C@@H](N)CCCNC(=N)N)C(=O)N[C@@H](CCCCN)C(=O)N[C@@H](CCC(=O)O)C(=O)N[C@@H](CCC(N)=O)C(=O)N[C@@H](CC(=O)O)C(=O)N[C@@H](CC(C)C)C(=O)N[C@@H](CC(C)C)C(=O)N[C@@H](CCC(=O)O)C(=O)N[C@H](C(=O)N[C@@H](CCCCN)C(=O)N[C@@H](CCCNC(=N)N)C(=O)N[C@@H](CCCNC(=N)N)C(=O)N[C@@H](CO)C(=O)N[C@@H](Cc1ccc(O)cc1)C(=O)N[C@@H](CCC(=O)O)C(=O)N[C@@H](CCCNC(=N)N)C(=O)O)[C@@H](C)O [L16R] (H-RQELESLMKEQDLLETKRRSYER-OH; N-terminus and C-terminus assumed)	> 30	almost complete loss	
CSCC[C@H](NC(=O)[C@H](CC(C)C)NC(=O)[C@H](CO)NC(=O)[C@H](CCC(=O)O)NC(=O)[C@H](CC(C)C)NC(=O)[C@H](CCC(=O)O)NC(=O)[C@H](CCC(N)=O)NC(=O)[C@@H](N)CCCNC(=N)N)C(=O)N[C@@H](CCCCN)C(=O)N[C@@H](CCC(=O)O)C(=O)N[C@@H](CCC(N)=O)C(=O)N[C@@H](CC(=O)O)C(=O)N[C@@H](CC(C)C)C(=O)N[C@@H](CC(C)C)C(=O)N[C@@H](CCC(=O)O)C(=O)N[C@H](C(=O)N[C@@H](CCCCN)C(=O)N[C@@H](CC(C)C)C(=O)N[C@@H](CCCNC(=N)N)C(=O)N[C@@H](CO)C(=O)N[C@@H](CCCNC(=N)N)C(=O)N[C@@H](CCC(=O)O)C(=O)N[C@@H](CCCNC(=N)N)C(=O)O)[C@@H](C)O [Y19R] (H-RQELESLMKEQDLLETKLRSRER-OH)	0.7 ± 0.05		
EIGELKAVMEGIKMEHQLELGN [CLIP2-degron, synthetic degron peptide derived from CLIP2]			-T∆S [2]: 2.57 kcal/mol; ∆G [2]: -8.23 kcal/mol; ∆H [2]: -10.8 ± 0.25 kcal/mol
ELEKAKQECQDLKGKLEKCCRH [CEP152-degron, synthetic degron peptide derived from CEP152]	3.8		-T∆S [2]: -4.79 kcal/mol; ∆G [2]: -6.59 kcal/mol; ∆H [2]: -1.8 ± 0.09 kcal/mol
